Row | SMILES | melting point [°C]
1 | CNc1c(N)n(CC(C)(C)C)c(=O)[nH]c1=O | 217 to 220
2 | CN(C)CCNC1=CC(=O)c2nc(-c3ccccc3Br)oc2C1=O | 147 to 148
3 | CCCCC(CC)Nc1cc(C)nc(Cl)c1N (stereo not given) | 139 to 140
4 | CS(=O)(=O)Nc1ccc(CCN2CCCCC2)cc1 | 123 to 124
5 | O=C1C=C(O)C(Cc2ccc(Br)cc2)S1 (stereo not given) | 156 to 157
6 | CCOC(=O)c1cn(CCO)c2nc(N3CCN(C(=O)OCC)CC3)c(F)cc2c1=O | 215 to 217
7 | CCCN(CCN1CCN(c2ccccc2OC)CC1)C1CCc2ncsc2C1 (stereo not given) | 136
8 | CC(C)(C)c1cc(C(=O)c2c[nH]c(SC#N)c2)cc(C(C)(C)C)c1O | 230 to 231
9 | Cc1ccc(S(=O)(=O)NCCC(C(=O)NO)C2(CC(C)C)CCN(CCc3ccccc3)C2=O)cc1 (stereo not given) | 166 to 167
10 | O=C(NC1CCCC1)N1CCc2[nH]cnc2C1 | 225
11 | COC(=O)c1ccc(C(=O)O)cc1C(=O)OC | 168 to 169
12 | CSc1ncccc1C1C(C(=O)OC(C)C)=C(C)NC(=S)N1C(=O)OC(C)C (stereo not given) | 119 to 121
13 | COc1ccccc1-c1nc2nc(SC)nnc2c(=O)[nH]1 | 268
14 | O=C1Cc2cccc(Oc3ccccc3Cl)c2O1 | 118 to 120
15 | CC(NC(=O)OC(C)(C)C)c1cc(F)c(N)c(I)c1 (stereo not given) | 88 to 90
16 | O=C1c2ccccc2C(O)(c2ccccc2)N1CCc1ccccc1F (stereo not given) | 208
17 | CCCCC[C@H]1CO[C@H](c2ccc(C(=O)O)cc2)OC1 | 210 to 211
18 | N#CN=C(Nc1cccnc1)NC1CC1 | 171 to 172
19 | O=C(NC1CCSCC1)c1cnccc1C(F)(F)F | 161 to 163
20 | O=C(O)Cc1cn(Cc2ccc(OCc3csc(-c4ccccc4)n3)nc2)nc1-c1ccccc1 | 118 to 119
21 | CCOCc1nc2c(N)nc(C)c(C)c2n1CCNC(=O)Nc1ccccc1 | 110
22 | CS(=O)(=O)c1ccc(-n2nc(C(F)(F)F)cc2-c2ccc(-c3ccoc3)cc2)cc1 | 165 to 166
23 | COC(=O)C1Cc2cc(-c3ccc(C(C)O)cc3)ccc2O1 (stereo not given) | 98 to 100
24 | O=C(Nc1ccccc1)Nc1ccc(Cc2ccc(NC3=NCCN3)cc2)cc1 | 167 to 170
25 | CCCCOc1c(C(C)O)n(C)c(=O)c2cc(Cl)c(Cl)cc12 (stereo not given) | 123 to 124
26 | O=C(O)CCCn1nnnc1S | 90 to 95
27 | CCNC(=S)N(CC)c1ccc(Cl)nc1 | 84 to 86
28 | Fc1ccccc1NC(=S)NCc1ccncc1 | 145

Row | SMILES | melting point [°C]
29 | Cc1ccc(C(=O)C#CCO)cc1 | 74
30 | COc1nc2ccc(Br)cc2c2c1C(C)(O)c1ccccc1-2 (stereo not given) | 159 to 160
31 | COc1cc(N(Cc2cncs2)c2ccc(C(=O)O)cc2)ccc1C(N)=O | 197
32 | CN(C)C(=O)c1cc(CN2C(=O)C3(COc4cc5c(cc43)OCO5)c3ccccc32)oc1C(F)(F)F (stereo not given) | 96 to 98
33 | CC(C)(O)Cn1c(CO)nc2c(N)nc3cc(CCC(=O)N4CCOCC4)ccc3c21 | 223 to 225
34 | CCCCCCCNC(=O)Nc1ccccc1C(=O)Nc1ccc(N(C)C)cc1 | 178 to 180
35 | CN1CCN(NC(=O)Nc2cccc3c2C(=O)c2c-3n[nH]c2-c2ccc(N3CCNCC3)cc2)CC1 | 254
36 | COc1ccc(-c2nc(C(F)(F)F)[nH]c2-c2ccc(S(C)(=O)=O)cc2)cc1F | 228 to 234
37 | CC(=O)NCCCc1nc2cnc3ccc(C)cc3c2n1C | 213 to 215
38 | C[C@H]1CCCN(C(=O)[C@@H]2Cc3ccccc3N2c2ccc(=O)n(C)n2)C1 | 231 to 233
39 | Cc1ccc(S(=O)(=O)OCC(COC(C)(C)C)OS(=O)(=O)c2ccc(C)cc2)cc1 (single isomer, unassigned; (+)) | 70 to 71
40 | CC(C)C[C@H](NC(=O)[C@H](Cc1ccccc1)NC(=O)C1CCCCC1S)C(=O)O (stereo not given in full) | 180 to 183
41 | Brc1ccccc1P(c1cccc2ccccc12)c1cccc2ccccc12 | 206 to 207
42 | Cc1cccc(NC(=O)NCC(=O)N(CC(=O)OC(C)(C)C)c2cccc(Cl)c2Cl)c1 | 135
43 | NC1=Nc2ccc([N+](=O)[O-])cc2C(c2ccccc2Cl)=NC1 | 222 to 224
44 | O=S1(=O)N=C(NC2CCCC2)Nc2sc(Cl)cc21 | 280 to 282
45 | CCCCCCCCCCCCC(C)(CO)CO | 67 to 68
46 | CC(=O)C1C(=O)CN(Cc2ccccc2)C1=O (stereo not given) | 74 to 75
47 | CCOc1ccc(-c2c(C)c3cc(O)ccc3n2Cc2ccc(OCCN3CCCCC3)cc2)cc1 | 173 to 175
48 | CC(C)C(NC(=O)OCc1cccnc1)C(=O)NC(Cc1ccccc1)C(O)C(O)C(Cc1ccccc1)NC(=O)C(NC(=O)OCc1cccnc1)C(C)C (stereo not given) | 202 to 207
49 | O=C1N=CC(OCc2ccccc2)(C(F)(F)F)c2cc(Cl)ccc2N1 (stereo not given) | 177 to 178
50 | COc1ccc(C(=O)c2ccc(Oc3ccc(Cl)cc3)cn2)cc1OC | 145 to 147
51 | Cc1cc(-c2ccc(C(F)(F)F)cc2)nc2c(-c3nc(-c4ccc(S(N)(=O)=O)s4)no3)cnn12 | 276
52 | CN(C)Cc1ccc(Cc2cnc(N[N+](=O)[O-])[nH]c2=O)cn1 | 234 to 238
53 | Cc1cc(SCc2ccc(-c3ccc(C(F)(F)F)cc3)cc2)c(Cl)cc1OCC(=O)O | 161 to 162
54 | CC(C)(c1cccc(C(F)(F)F)c1)N1C[C@H]([C@H](Cc2ccccc2)NC(=O)c2cc(C(=O)O)c3n2CCN(S(C)(=O)=O)C3)OC1=O | 147
55 | O=C(O)c1cccc2oc(-c3ccccc3OCc3ccccc3)nc12 | 103 to 104

Further lines, results first:

Row | melting point [°C] | SMILES
56 | 105 to 107 | O=C(Cl)N1CCC(Oc2cc(Cl)cc(Cl)c2)C1 (stereo not given)
57 | 86.2 | COc1ccc(S(=O)(=O)N(CCO)c2ccc(Cl)cc2C(O)c2ccccc2Cl)cc1OC (stereo not given)
58 | 150 to 151 | COC(=O)C1CCN2C(=O)C(=O)c3cc(Br)cc1c32 (stereo not given)
59 | 108 | CS(=O)(=O)c1ccccc1-c1cc(CCO)nn1C1CCCCC1
60 | 82 to 85 | COC(=O)c1[nH]c2c(C)ccc(C)c2c1SC
61 | 144 to 146 | CC(=O)Nc1ccnn1-c1c(F)cc(C(F)(F)F)cc1Cl
62 | 214 | Nc1nc(-c2ccc3c(c2)OCCO3)c(-c2ccccn2)s1
63 | 218 to 220 | CC1CCC(C(=O)Nc2ccc(-c3ncc(-c4ccc(NC(=O)C5CCCCC5C)cc4)[nH]3)cc2)CC1 (stereo not given)
64 | 150 to 151 | CCC(C)(C)Nc1c(N(Cc2ccc(C#N)cc2Cl)C(C)=O)c(=O)c1=O
65 | 129 to 130 | COC(=O)c1nc(C)c(-c2nccs2)s1
66 | 210 | OC1CSC(Oc2cncc(-c3cc4ccccc4o3)c2)C(O)C1O (stereo not given)
67 | 176 to 179 | CN1CN(C)c2nc3n(Cc4ccccc4)c(=O)c(Cc4ccccc4)c(O)n3c2C1=O
68 | 220 to 222 | Fc1ccc(Nc2ncnc3cnc(NCc4ccccn4)nc23)cc1Cl
69 | 44 to 45 | CCOC(=O)CC(=O)c1cc(F)c(Cl)cc1Cl
70 | 218 to 220 | CC(CC1=C(c2cccc(O)c2)CCCNC1=O)N1CCCCC1 (stereo not given)
71 | 110 | Fc1cccc(C(c2ccc3nccnc3c2)n2ccnc2)c1 (stereo not given)
72 | 65 to 66 | CC(C)(C)OC(=O)N[C@@H](COCc1ccccc1)C(=O)N[C@H](CCC(=O)OCc1ccccc1)C(N)=O
73 | 208 to 210 | O=C(O)Cc1cc(=O)n(Cc2ccc([N+](=O)[O-])cc2)c2ccccc12
74 | 91.9 to 92 | O=S1(=O)CCN2C=C(F)C=C(c3ccc(Oc4ccccc4)cc3)C2=N1
75 | 96 to 98 | CCCc1cc(=O)oc2c(C(=O)CC)c(O)c3c(c12)OC(C)(C)C=C3
76 | 240 to 241 | CCNC(=O)Nc1cc(-c2c(-c3ccc(F)c(C)c3)nc3c(C)ccnn23)ccn1
77 | 149 to 151 | CC1CN(c2ccccn2)N=C1N (stereo not given)
78 | 107 to 108 | Nc1cnc2ccc(C(F)(F)F)cc2c1-c1ccccc1

Row | melting point [°C] | SMILES
79 | 76 to 78 | Nc1sc2c(c1C(=O)c1ccc3ccccc3c1)CCC(Cc1ccc([N+](=O)[O-])cc1)C2 (stereo not given)
80 | > 250 | NS(=O)(=O)c1ccc(NN=C2C(=O)Nc3ccc(C(=O)NCc4ccco4)cc32)cc1
81 | 94 to 95.5 | COc1ccc2c(-c3ccccc3)c(C(=O)c3ccccc3)sc2c1
82 | 106 to 108 | Cc1csc(C(=O)CCc2ccccc2)c1OCCN(C)C
83 | 191 | Cn1ncc2c(=O)n3c(nc21)SC(c1ccccc1)C3 (stereo not given)
84 | 146 to 148 | C=CC(=O)NCC(C(=O)c1ccccc1)C(=O)c1ccccc1
85 | 116 to 117 | CNS(=O)(=O)CCS(C)(=O)=O
86 | 273 to 274 | CN1C(C(=O)Nc2ccccc2)=C(O)c2ccc3ccccc3c2S1(=O)=O
87 | 174 to 175 | O=C(Nc1ccccc1F)N1CCc2cc(S(=O)(=O)N3CCN(c4cccc(Cl)c4)CC3)ccc21
88 | 160 | N#CN=CNCc1cc(Cl)nc(Cl)c1
89 | 43 | Cc1cc2ccccc2n1-c1ccc(F)cc1
90 | 145 to 147 | CC(C)(CCCC(=O)O)c1ccc2c(c1)C(=O)c1cc(C(C)(C)CCCC(=O)O)ccc1C2=O
91 | 262 to 264 | CN(C)c1ccc(-c2nc(S)nnc2-c2ccc(F)cc2)cc1
92 | > 300 | CCCCn1c(=O)n(C)c(=O)c2nc(-c3ccc(/C=C/C(=O)O)cc3)[nH]c21
93 | 148 to 150 | [N-]=[N+]=C1c2cc(F)ccc2-c2ccc(F)cc21
94 | 49 to 50 | COCOc1cc(OC)cc(C)c1C(=O)c1ccc(OCc2ccccc2)cc1
95 | 193 to 196 | NC(CO)(CCCc1ccc(Sc2cccc(OCc3ccccc3)c2)cc1Cl)CCP(=O)(O)O (stereo not given)
96 | 67 to 68 | CCCc1nc2cc(CC(=O)O)ccc2o1
97 | 132 | CCCC(C)CC(C)(C)NC(=O)CN1C(=O)c2ccccc2C1=O (stereo not given)
98 | 200 to 202 | O=C(CNS(=O)(=O)c1ccc2ccccc2c1)NCC(NC(=O)C1CCN(c2ccncc2)CC1)C(=O)N1CCCCC1 (stereo not given)
99 | 122 to 123 | CCCCCCCOc1ccc(C(=O)O)cc1OCCCCCCC
100 | 84 to 86 | O=C1OCCC1Oc1ccc(C(F)(F)F)cc1 (stereo not given)
